According to patent EP2992880A1, “Use of heme oxygenase 1 inducers and cannabinoid 2 receptor or delta-opioid receptor agonists in inflammatory pain” (Fundació Institut de Recerca de l'Hospital de la Santa Creu …, priority 2014, dated 2016):

How the values were obtained:
Assay type in all cases: in vivo, male C57BL/6 mice
CFA-injected mice [1] = experiment: von Frey filaments test (mechanical allodynia) in CFA-induced chronic inflammatory pain; details: for Mechanical allodynia von Frey filaments strength / Mechanical allodynia, Experimental results (%) (maximal possible effect): ipsilateral paw; for Mechanical allodynia von Frey filaments strength: mean ± SEM, n=6; for reversal of the antiallodynic effects produced by 150 µg of DPDPE / reversal of the antiallodynic (antinociceptive) effects produced by 300 µg of JWH-015: subplantar coadministration; for reversal of the antiallodynic effects produced by 150 µg of DPDPE: P < 0.001; for Mechanical allodynia, Experimental results (%) (maximal possible effect): CoPP 10 mg/kg intraperitoneal
Protocol: (§1) The experiments were performed in male C57BL/6 mice acquired from Harlan Laboratories (Barcelona, Spain). All mice weighing 21 to 25 g were housed under 12-h/12-h light/ dark conditions in a room with controlled temperature (22° C) and humidity (66%). Animals had free access to food and water and were used after a minimum of 7 days acclimatization to the housing conditions. All experiments were performed according with the Guide for the Care and Use of Laboratory Animals as adopted and promulgated by the U.S. National Institutes of Health and approved by the local Committee of Animal Use and Care of the Autonomous University of Barcelona. All efforts were made to minimize animal suffering and to reduce the number of animals used.
(§2) Chronic inflammatory pain was induced by the subplantar injection of 30 µl of CFA (Sigma) into the right hind paw under brief anesthetic conditions with isoflurane according to previous works (Leánez et al., Eur J Pharmacol, 2009, 602:41-49; Hervera et al., Naunyn Schmiedebergs Arch Pharmacol, 2009, 380:345-352). All experiments were performed at 10 days after CFA injection. At this time point, all of these animals developed a local inflammatory reaction, allodynia to mechanical stimuli and hyperalgesia to noxious thermal stimuli, as previously reported (Negrete et al., PLoS One, 2011, 6:e26688). The development of mechanical allodynia and thermal hyperalgesia was evaluated by using the von Frey filaments and plantar tests, respectively. All animals were tested in each paradigm before and at 10 days after CFA-injection.
Mechanical allodynia was quantified by measuring the hind paw withdrawal response to von Frey filament stimulation. In brief, animals were placed in methacrylate cylinders (20 cm high, 9 cm diameter; Servei Estació, Barcelona, Spain) with a wire grid bottom through which the von Frey filaments (North Coast Medical, Inc., San Jose, CA) with a bending force in the range of 0.008-3.5 g were applied by using a modified version of the up-down paradigm, as previously reported by Chaplan et al. (J Neurosci Methods, 1994, 53:55-63). The filament of 0.4 g was used first and the 3.0 g filament was used as a cut-off. Then, the strength of the next filament was decreased or increased according to the response. The threshold of response was calculated from the sequence of filament strength used during the up-down procedure by using an Excel program (Microsoft Iberia SRL, Barcelona, Spain) that includes curve fitting of the data. Clear paw withdrawal, shaking, or licking of the paw was considered as a nociceptive-like response. Both ipsilateral and contralateral hind paws were tested. Animals were allowed to habituate for 1 h before testing in order to allow an appropriate behavioral immobility.
In a first set of experiments, we assessed the expression of inflammatory pain induced by the subplantar administration of CFA as previously used (Leánez et al., Eur J Pharmacol, 2009, 602:41-49). After the habituation period, baseline responses were established in the following sequence: von Frey filaments and plantar test. After baseline measurements, inflammatory pain was induced and animals were again tested in each paradigm at day 10 after CFA injection by using the same sequence as for baseline responses. The contralateral paws were used as controls (n = 6 animals per group).
In a second set of experiments, we evaluated the mechanical antiallodynic and thermal antihyperalgesic effects of the subplantar administration of different doses of a specific DOR (DPDPE) or CB2R (JWH-015) agonist and their respective vehicles in the contralateral and ipsilateral paw of CFA-injected animals (n = 6 animals per group). […]

CFA-injected mice [2] = experiment: plantar test (thermal hyperalgesia) in CFA-induced chronic inflammatory pain; details: for Thermal hyperalgesia Withdrawal latency: mean ± SEM, n=6; for reversal of the antihyperalgesic effects produced by 150 µg of DPDPE / reversal of the antihyperalgesic (antinociceptive) effects produced by 300 µg of JWH-015: subplantar coadministration; for reversal of the antihyperalgesic effects produced by 150 µg of DPDPE: P < 0.001
Protocol: as §1, §2
Thermal hyperalgesia was assessed as previously reported by Hargreaves et al. (Pain, 1988, 32:77-88). Paw withdrawal latency in response to radiant heat was measured using the plantar test apparatus (Ugo Basile, Varese, Italy). Briefly, mice were placed in methacrylate cylinders (20 cm high x 9 cm diameter) positioned on a glass surface. The heat source was positioned under the plantar surface of the hind paw and activated with a light beam intensity, chosen in preliminary studies to give baseline latencies from 8 to 10 s in control mice. A cut-off time of 12 s was used to prevent tissue damage in absence of response. The mean paw withdrawal latencies from the ipsilateral and contralateral hind paws were determined from the average of three separate trials, taken at 5 min intervals to prevent thermal sensitization and behavioral disturbances. Animals were habituated to the environment for 1 h before the experiment to become quiet and to allow testing. […]
In another set of experiments, we evaluated the mechanical antiallodynic and thermal antihyperalgesic effects produced by the subplantar administration of 290 µg of SnPP alone or combined with the subplantar administration of a high dose of DPDPE (150 µg) or JWH-015 (300 µg) in the contralateral and ipsilateral paw of CFA-injected animals (n = 6 animals per group).
The reversibility of the antinociceptive effects produced by the subplantar administration of DPDPE (150 µg) or JWH-015 (300 µg), as doses that produce the maximal antiallodynic and antihyperalgesic effects after peripheral inflammation, by their subplantar coadministration with specific (naltrindole; 50 µg; AM630; 60 µg) and an unspecific peripheral opioid antagonist (naloxone methiodide, NX-ME; 50 µg) or a cannabinoid 1 receptor (CB1R) antagonist (AM251; 150 µg) (Hervera et al., J Pharmacol Exp Ther, 2010, 334: 887-896; Hervera et al., Mol Pain, 2011, 7:25) was also evaluated (n = 6 animals per group). The doses of all tested opioid and cannabinoid receptor antagonists were selected according to our previous data in animals with chronic pain (Hervera et al., Naunyn Schmiedebergs Arch Pharmacol, 2009, 380:345-352; Hervera et al., Psychopharmacology, 2013, 228:463-477; Negrete et al., PLoS One, 2011, 6:e26688).
CoPP and SnPP were dissolved in DMSO (1 % solution in saline). JWH-015, AM630, AM251 were dissolved in DMSO (50 % solution in saline). […]

CFA-injected mice [3] = experiment: as above
Protocol: as §1
Chronic inflammatory pain was induced by the subplantar injection of 30 µl of CFA (Sigma) into the right hind paw under brief anesthetic conditions with isoflurane according to previous works (Leánez et al., Eur J Pharmacol, 2009, 602:41-49; Hervera et al., Naunyn Schmiedebergs Arch Pharmacol, 2009, 380:345-352). All experiments were performed at 10 days after CFA injection. […] The development of mechanical allodynia and thermal hyperalgesia was evaluated by using the von Frey filaments and plantar tests, respectively. […]
Thermal hyperalgesia was assessed as previously reported by Hargreaves et al. (Pain, 1988, 32:77-88). Paw withdrawal latency in response to radiant heat was measured using the plantar test apparatus (Ugo Basile, Varese, Italy). […] The mean paw withdrawal latencies from the ipsilateral and contralateral hind paws were determined from the average of three separate trials, taken at 5 min intervals to prevent thermal sensitization and behavioral disturbances. […]
In a first set of experiments, we assessed the expression of inflammatory pain induced by the subplantar administration of CFA as previously used (Leánez et al., Eur J Pharmacol, 2009, 602:41-49). […]

[4] = Table 7, DOR agonist, subplantar DPDPE 150 µg, naltrindole 50 µg, NX-ME 50 µg, vehicle+vehicle 1.3 ± 0.1
[5] = Table 7, DOR agonist, ipsilateral paw, subplantar DPDPE 150 µg, naltrindole 50 µg, NX-ME 50 µg, vehicle+vehicle 3.4 ± 0.5
[6] = Table 7, CB2R agonist, subplantar JWH-015 300 µg, AM630 60 µg, AM251 150 µg, vehicle+vehicle 1.4 ± 0.1
[7] = Table 7, CB2R agonist, ipsilateral paw, subplantar JWH-015 300 µg, AM630 60 µg, AM251 150 µg, vehicle+vehicle 3.8 ± 0.3

Oc1ccc2c3c1O[C@H]1c4[nH]c5ccccc5c4C[C@@]4(O)[C@@H](C2)N(CC2CC2)CC[C@]314 [Naltrindole, naltrindole]
Mechanical allodynia von Frey filaments strength (CFA-injected mice [1]; [4]): 1.3 ± 0.1 g
reversal of the antiallodynic effects produced by 150 µg of DPDPE (CFA-injected mice [1]; naltrindole 50 µg, NX-ME 50 µg): completely reversed
Thermal hyperalgesia Withdrawal latency (CFA-injected mice [2]; [5]): 3.4 ± 0.6 s
reversal of the antihyperalgesic effects produced by 150 µg of DPDPE (CFA-injected mice [2]; naltrindole 50 µg, NX-ME 50 µg): completely reversed

C=CC[N+]1(C)CC[C@]23c4c5ccc(O)c4O[C@H]2C(=O)CC[C@@]3(O)[C@H]1C5 (some centres unmarked) [NX-ME, naloxone methiodide]
Mechanical allodynia von Frey filaments strength (CFA-injected mice [1]; [4]): 1.2 ± 0.1 g
reversal of the antiallodynic effects produced by 150 µg of DPDPE (CFA-injected mice [1]; naltrindole 50 µg, NX-ME 50 µg): completely reversed
Thermal hyperalgesia Withdrawal latency (CFA-injected mice [2]; [5]): 3.6 ± 0.5 s
reversal of the antihyperalgesic effects produced by 150 µg of DPDPE (CFA-injected mice [2]; naltrindole 50 µg, NX-ME 50 µg): completely reversed

C=Cc1c(C)c2cc3[nH]c(cc4nc(cc5nc(cc1[nH]2)C(C)=C5CCC(=O)[O-])C(CCC(=O)[O-])=C4C)c(C)c3C=C.[Cl-].[Cl-].[Sn+4] [SnPP, tin (IV) protoporphyrin IX dichloride]
effect of SnPP coadministration on the local antiallodynic effects of DPDPE (CFA-injected mice [1]; SnPP 290 µg + DPDPE 150 µg subplantar, P < 0.001 (Fig. 5A)): significantly decreased
effect of SnPP coadministration on the local antiallodynic effects of JWH-015 (CFA-injected mice [1]; SnPP 290 µg + JWH-015 300 µg subplantar, P < 0.001 (Fig. 5A)): significantly decreased
mechanical allodynia induced by peripheral inflammation (CFA-injected mice [1]; SnPP alone 290 µg subplantar (Fig. 5A)): did not alter
effect of SnPP coadministration on the local antihyperalgesic effects of DPDPE (CFA-injected mice [2]; SnPP 290 µg + DPDPE 150 µg subplantar, P < 0.001 (Fig. 5B)): significantly decreased
effect of SnPP coadministration on the local antihyperalgesic effects of JWH-015 (CFA-injected mice [2]; SnPP 290 µg + JWH-015 300 µg subplantar, P < 0.001 (Fig. 5B)): significantly decreased
thermal hyperalgesia induced by peripheral inflammation (CFA-injected mice [2]; SnPP alone 290 µg subplantar (Fig. 5B)): did not alter

COc1ccc(C(=O)c2c(C)n(CCN3CCOCC3)c3cc(I)ccc23)cc1 [AM630]
Mechanical allodynia von Frey filaments strength (CFA-injected mice [1]; [6]): 1.3 ± 0.1 g
reversal of the antiallodynic (antinociceptive) effects produced by 300 µg of JWH-015 (CFA-injected mice [1]; AM630 60 µg, AM251 150 µg): completely reversed
Thermal hyperalgesia Withdrawal latency (CFA-injected mice [2]; [7]): 3.7 ± 0.2 s
reversal of the antihyperalgesic (antinociceptive) effects produced by 300 µg of JWH-015 (CFA-injected mice [2]; AM630 60 µg, AM251 150 µg): completely reversed

CCCn1c(C)c(C(=O)c2cccc3ccccc23)c2ccccc21 [JWH-015, (2-Methyl-1-propyl-1H-indol-3-yl)-1-naphthalenylmethanone]
Mechanical allodynia, Experimental results (%) (maximal possible effect) (CFA-injected mice [1]; Table 6, JWH-015 30 µg subplantar, vehicle 4.1): 7.5%
Mechanical allodynia von Frey filaments strength (CFA-injected mice [1]; [6]): 2.5 ± 0.2 g
Thermal hyperalgesia, Experimental results (%) (maximal possible effect) (CFA-injected mice [2]; Table 6, ipsilateral paw, CoPP 10 mg/kg intraperitoneal, JWH-015 30 µg subplantar, vehicle 4.9): 7.4%
Thermal hyperalgesia Withdrawal latency (CFA-injected mice [2]; [7]): 9.2 ± 0.2 s

Cc1c(C(=O)NN2CCCCC2)nn(-c2ccc(Cl)cc2Cl)c1-c1ccc(I)cc1 [AM251, N-(piperidin-1-yl)-5-(4-iodophenyl)-1-(2,4-dichlorophenyl)-4-methyl-1 H-pyrazole-3-carboxamide]
Mechanical allodynia von Frey filaments strength (CFA-injected mice [1]; [6]): 1.4 ± 0.1 g
reversal of the antiallodynic (antinociceptive) effects produced by 300 µg of JWH-015 (CFA-injected mice [1]; AM630 60 µg, AM251 150 µg): unable to revert
Thermal hyperalgesia Withdrawal latency (CFA-injected mice [2]; [7]): 3.6 ± 0.4 s
reversal of the antihyperalgesic (antinociceptive) effects produced by 300 µg of JWH-015 (CFA-injected mice [2]; AM630 60 µg, AM251 150 µg): unable to revert

[2-D-penicillamine,5-D-penicillamine]-enkephalin [DPDPE]
Mechanical allodynia, Experimental results (%) (maximal possible effect) (CFA-injected mice [1]; Table 5, DPDPE 50 µg subplantar, vehicle 5.8): 11.8%
Mechanical allodynia von Frey filaments strength (CFA-injected mice [1]; [4]): 2.4 ± 0.1 g
mechanical allodynia induced by peripheral inflammation (CFA-injected mice [1]; subplantar administration, DPDPE 50-150 µg, JWH-015 30-300 µg (Fig. 1A, 2A)): dose-dependently inhibited
Thermal hyperalgesia, Experimental results (%) (maximal possible effect) (CFA-injected mice [3]; Table 5, ipsilateral paw, CoPP 10 mg/kg intraperitoneal, DPDPE 50 µg subplantar, vehicle 4.0): 16.0%
Thermal hyperalgesia Withdrawal latency (CFA-injected mice [3]; Table 7, DOR agonist, ipsilateral paw, subplantar DPDPE 150 µg, naltrindole 50 µg, NX-ME 50 µg, vehicle+vehicle 3.4 ± 0.5, mean ± SEM, n=6): 9.2 ± 0.7 s
thermal hyperalgesia induced by peripheral inflammation (CFA-injected mice [3]; subplantar administration, DPDPE 50-150 µg, JWH-015 30-300 µg (Fig. 1B, 2B)): dose-dependently inhibited
